The test concerns the target rFIXa (human) (Homo sapiens, UniProt P00740). The experiment in a line: Influence of alcohols and organic solvents on the activity of rFIXa, chromogenic peptide substrates. The format is biochemical. More on the design: coding for the FIX protease domain from amino acid position 181 to 415; Met (ATG start codon) (N); made in house. As to conditions: for V/V0: MeSO2-D-HHT-Gly-Arg-pNA 1.02 mmol/l, 0.48 μmol/l rFIXa; for V/V0 / effect on the activity of rFIXa (in words): pH 7.4; for effect on the activity of rFIXa (in words): additive 0-50%, MeSO2-D-HHT-Gly-Arg-pNA. How it is done: The reaction was started by adding FIXa.
MeSO2 -D-HHT-Gly-Arg-pNA→MeSO2 -D-HHT-Gly-Arg+pNA measurement signal: pNA
0.48 μmol/l rFIXa (human)
0-50% (alcohol or organic solvent)
The ratio V/V0 was calculated to illustrate the stimulation of the catalytic activity of rFIXa.
V0, reaction rate without additives
V, reaction rate in the presence of additives
Test Mixture Chromogenic (Concentration in the Test)

The source of these data is US6087119A, “Method for determining the catalytic activity of factor IXa” (Roche Diagnostics GmbH, priority 1996, dated 2000).

Sequence of rFIXa (human) (P00740 227-461 limits assumed): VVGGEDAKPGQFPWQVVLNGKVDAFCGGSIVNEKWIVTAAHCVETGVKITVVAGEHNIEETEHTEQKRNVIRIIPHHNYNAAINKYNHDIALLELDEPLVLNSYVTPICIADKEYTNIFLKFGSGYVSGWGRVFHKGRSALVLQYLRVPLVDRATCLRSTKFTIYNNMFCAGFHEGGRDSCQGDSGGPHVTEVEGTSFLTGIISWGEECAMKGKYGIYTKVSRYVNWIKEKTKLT
Sequence of rFIXa (human) (P00740 131-226 partner limits assumed): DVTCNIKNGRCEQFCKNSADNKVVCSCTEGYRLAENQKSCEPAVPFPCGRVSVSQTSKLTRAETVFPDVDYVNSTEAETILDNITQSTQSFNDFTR

For the molecule `CO` [Methanol], the V/V0 is 2.16 (8% additive); 3.46 (16% additive); 3.71 (25% additive); 2.83 (33% additive); 1.55 (41% additive); 0.588 (50% additive). Also, for the setting “concentration range of 15-40%”, the “stimulation of the activity of rFIXa” value is recorded as 5-15 fold.
As for `CN(C)C=O` [DMF, dimethylformamide], the “effect on the activity of rFIXa (in words)” value (shortened to “effect on the activity”) is on record as “inactivate the enzyme”. The V/V0 (8% additive) is given as 0.649. The molecule also had a V/V0 (16% additive) of 0.514. The V/V0 (25% additive) came out at 0. The molecule further had a V/V0 (33% additive) of 0. This molecule also gave a V/V0 (41% additive) of 0. In addition, the V/V0 (50% additive) is 0.
Take `C[S+](C)[O-]` [DMSO, dimethylsulfoxide]: the “effect on the activity” value was “does not inhibit rFIXa up to 30%”. Moreover, the V/V0 (8% additive) amounted to 1.27. The molecule further displayed a V/V0 (16% additive) of 1.45. Besides, the V/V0 (25% additive) came to 1.59. Moreover, for the setting “33% additive”, the V/V0 is 1.43. Also, the V/V0 (41% additive) amounted to 0.922. Moreover, the V/V0 (50% additive) came to 0.157.
`CC(C)(C)O` [t-Butanol]: the V/V0 by setting is: (8% additive) 2.05; (16% additive) 1.67; (25% additive) 0.702; (33% additive) 0.368; (41% additive) 0.263; (50% additive) 0.263.
Take `OC[C@@H](O)[C@@H](O)CO` [m-Erythritol]: the “effect on the activity” value was “only has a slight effect”. This molecule also displayed a V/V0 (8 g/100 ml additive) of 1.16. This molecule returned a V/V0 (16 g/100 ml additive) of 1.35. In addition, where the note is “25 g/100 ml additive”, the V/V0 came out at 1.49. The molecule also displayed a V/V0 (33 g/100 ml additive) of 1.56. The molecule also registered a V/V0 (41 g/100 ml additive) of 1.64. For the same molecule, the V/V0 (50 g/100 ml additive) is recorded as 1.77.
Take `CCCO` [n-Propanol]: the V/V0 (8% additive) is recorded as 3.43; the V/V0 (16% additive) is 2.26; the V/V0 (25% additive) came to 0.339; the V/V0 (33% additive) is 0.186; the V/V0 (41% additive) was found to be 0.056; the V/V0 (50% additive) is reported as 0.056.
Turning to `CC(C)O` [i-Propanol], the V/V0 is, setting by setting: (8% additive) 2.17; (16% additive) 2.48; (25% additive) 1.18; (33% additive) 0.346; (41% additive) 0.164; (50% additive) 0.164.
In the case of `CC#N` [Acetonitrile], the “effect on the activity” value was “inactivate the enzyme”. This molecule also yielded a V/V0 (8% additive) of 0.828. Where the note is “16% additive”, this molecule returned a V/V0 of 0.314. Moreover, where the note is “25% additive”, the V/V0 was determined as 0. Further, the V/V0 (33% additive) is 0. For the setting “41% additive”, this molecule displayed a V/V0 of 0. Where the note is “50% additive”, this molecule yielded a V/V0 of 0.
As for `OCC(O)CO` [Glycerol], the “effect on the activity” value is “does not stimulate until higher concentrations (25-50%)”. The same molecule returned a V/V0 (8% additive) of 1.12. Also, the V/V0 (16% additive) came out at 1.64. For the same molecule, the V/V0 (25% additive) is 2.47. Where the note is “33% additive”, this molecule came in with a V/V0 of 3.38. The same molecule gave a V/V0 (41% additive) of 4.82. The same molecule had a V/V0 (50% additive) of 5.91.
